Tests used:
MRSA = experiment: Biofilm inhibition, crystal violet assay; type: cell-based, methicillin-resistant S. aureus; settings: for biofilm inhibition activity (in words) / inhibition at 200 µM / IC50: MRSA; for inhibition at 200 µM / IC50: Staphylococcus aureus; for inhibition at 200 µM: read-out: % Inhibition of biofilm formation; for IC50: concentration that inhibits 50% of biofilm formation
Description: (§1) Procedure to Determine the Inhibitory Effect of Test Compounds.
(§2) Inhibition assays were performed by taking an overnight culture of bacterial strain and subculturing it at an OD600 of 0.01 into the medium. Stock solutions of predetermined concentrations of the test compound were then made in the medium. These stock solutions were aliquoted (100 μL) into the wells of the 96-well PVC microtiter plate. Sample plates were then wrapped in GLAD Press n'Seal® followed by an incubation under stationary conditions for 24 h at 37° C. After incubation, the medium was discarded from the wells and the plates were washed thoroughly with water. Plates were then stained with 100 μL of 0.1% solution of crystal violet (CV) and then incubated at ambient temperature for 30 min. Plates were washed with water again and the remaining stain was solubilized with 200 μL of 95% ethanol. A sample of 125 μL of solubilized CV stain from each well was transferred to the corresponding wells of a polystyrene microtiter dish. Biofilm inhibition was quantitated by measuring the OD540 of each well in which a negative control lane wherein no biofilm was formed served as a background and was subtracted out.

[1] = tested on: S. aureus strain ATCC 29213; experiment: Biofilm inhibition, crystal violet assay; type: cell-based; settings: for biofilm inhibition activity (in words): 29213, 200 μM; for IC50: Staphylococcus aureus, ATCC29213, S. aureus ATCC 29213
Description: (§3) Given the potency of our lead compounds toward inhibiting MRSA biofilms, we next explored their activity against various other S. aureus strains. […] IC50 values were determined for each compound against each of the S. aureus strains.
as §1, §2

VRE = experiment: Biofilm inhibition, crystal violet assay; type: cell-based, vancomycin-resistant Enterococcus faecium; settings: 200 μM
Description: as §1, §2

[2] = tested on: red blood cell (difibrinated sheep blood); experiment: Red blood cell hemolysis assay; type: cell-based; settings: up to the highest concentration tested (1.2 mM)
Description: This was assessed using a red blood cell hemolysis assay using difibrinated sheep blood.
Red Blood Cell Hemolysis Assay.
Hemolysis assays were performed on mechanically difibrinated sheep blood (Hemostat Labs: DSB100). 1.5 mL of blood was placed into a microcentrifuge tube and centrifuged at 10000 rpm for ten minutes. The supernatant was removed and then the cells were resuspended with 1 mL of phosphate-buffered saline (PBS). The suspension was centrifuged, the supernatant was removed and cells resuspended two more times. The final cell suspension was then diluted tenfold. Test compound solutions were made in PBS in small culture tubes and then added to aliquots of the tenfold suspension dilution. PBS alone was used as a negative control and as a zero hemolysis marker whereas a 1% Triton X sample was used as a positive control and the 100% lysis marker. Samples were then placed in an incubator at 37° C. while being shaken at 200 rpm for one hour. After one hour, the samples were transferred to microcentrifuge tubes and then centrifuged at 10000 rpm for ten minutes. The resulting supernatant was diluted by a factor of 40 in distilled water. The absorbance of the supernatant was measured with a UV spectrometer at a 540 nm wavelength.

R. salexigens [3] = experiment: Biofilm inhibition, crystal violet assay; type: cell-based, Rhodospirillum salexigens; settings: 200 μM
Description: as §1, §2

E. coli = experiment: Biofilm inhibition, crystal violet assay; type: cell-based; settings: for inhibition at 200 µM / IC50: Escherichia coli; for inhibition at 200 µM: read-out: % Inhibition of biofilm formation; for IC50: concentration that inhibits 50% of biofilm formation
Description: as §1, §2

S. epidermidis = experiment: Biofilm inhibition, crystal violet assay; type: cell-based; settings: 200 μM
Description: as §1, §2

MDRAB = experiment: Biofilm inhibition, crystal violet assay; type: cell-based, multi-drug resistant Acinetobacter baumannii; settings: 200 μM
Description: as §1, §2

R. salexigens [4] = settings: reported by Yamada et al.; cited from earlier work
[5] = tested on: S. aureus strain ATCC 29740; experiment: Biofilm inhibition, crystal violet assay; type: cell-based; settings: Staphylococcus aureus, ATCC29740; S. aureus ATCC 29740
Description: as §3, §1, §2

[6] = tested on: S. aureus strain ATCC 25923; experiment: Biofilm inhibition, crystal violet assay; type: cell-based; settings: Staphylococcus aureus, ATCC25923; S. aureus ATCC 25923
Description: as §3, §1, §2

CC(C)CCC[C@@H](C)C1CCC2[C@@H]3CC=C4C[C@@H](OC(=O)N5CCc6ccccc65)CC[C@]4(C)[C@H]3CC[C@]12C (stereo partly shown)
melting point: 142 to 145 °C

CC(C)CCC[C@@H](C)C1CCC2[C@@H]3CC=C4C[C@@H](OC(=O)NCCc5ccc(N)cc5)CC[C@]4(C)[C@H]3CC[C@]12C (stereo partly shown)
melting point: 135 to 139 °C

COC1CC(C)CCC1C(C)C (single isomer, unassigned; (-)) [(−)-menthol methyl ether, reference compound]
biofilm inhibition activity (in words) (MRSA; 200 μM): completely inactive
biofilm inhibition activity (in words) [1]: completely inactive

CC1CCC(C(C)C)C(O)C1 (single isomer, unassigned; (-)) [(−)-menthol, reference compound]
biofilm inhibition activity (in words) (MRSA; 200 μM): completely inactive
biofilm inhibition activity (in words) [1]: completely inactive

CCOC(=O)NCCc1ccccc1 [Compound 2d, ethyl N-(2-phenethyl) carbamate]
% Inhibition of biofilm formation (MRSA; 200 μM): 68.1%
% Inhibition of biofilm formation (VRE): 80.2%
red blood cell lysis [2]: no red blood cell lysis
% Inhibition of biofilm formation (R. salexigens [3]): 59.7%
% Inhibition of biofilm formation (E. coli; 200 μM): 40.8%
% Inhibition of biofilm formation (S. epidermidis): 63.1%
% Inhibition of biofilm formation (MDRAB): 52.0%
antibiofilm activity reported in the literature (R. salexigens [4]): moderate antibiofilm activity

CC(C)[C@@H]1CC[C@@H](C)C[C@H]1OC(=O)NCCn1nccn1 [Compound 5a, (1R,2S,5R)-2-isopropyl-5-methylcyclohexyl 2-(2H-1,2,3-triazol-2-yl)ethylcarbamate]
inhibition at 200 µM (E. coli; 200 μM): > 80%
IC50 (E. coli): 28.3 µM

CC(C)[C@@H]1CC[C@@H](C)C[C@H]1OC(=O)NCCc1ccc(N)cc1 [Compound 8a, (1R,2S,5R)-2-isopropyl-5-methylcyclohexyl 4-aminophenethylcarbamate]
inhibition at 200 µM (MRSA; 200 μM): > 90%
IC50 (MRSA): 49.8 µM
red blood cell lysis [2]: no red blood cell lysis
IC50 [1]: 21.2 µM
IC50 [5]: 24.3 µM
IC50 [6]: 71.9 µM

CC(C)[C@@H]1CC[C@@H](C)C[C@H]1OC(=O)NCCc1ccccn1 [Compound 9a, (1R,2S,5R)-2-isopropyl-5-methylcyclohexyl 2-(pyridin-2-yl)ethylcarbamate]
inhibition at 200 µM (MRSA; 200 μM): > 90%
IC50 (MRSA): 4.87 µM
red blood cell lysis [2]: no red blood cell lysis
inhibition at 200 µM (E. coli; 200 μM): > 80%
IC50 (E. coli): 34.6 µM
IC50 [1]: 124 µM
IC50 [5]: 82.2 µM
IC50 [6]: 19.7 µM
melting point: 59 to 63 °C

CC(C)[C@H]1CC[C@H](C)C[C@@H]1OC(=O)NCCc1ccccn1 [Compound 9k, (1S,2R,5S)-2-isopropyl-5-methylcyclohexyl 2-(pyridin-2-yl)ethylcarbamate]
biofilm inhibition activity (in words) (MRSA; 200 μM): identical antibiofilm properties as their enantiomers
biofilm inhibition activity (in words) [1]: identical antibiofilm properties as their enantiomers
melting point: 57 to 59 °C
